Activity calls are given as the source filed them. The rule behind the calls is not given here.

The values that follow come from ChEMBL document CHEMBL2380195 (J Med Chem, 2013).

For data set [1], the target named is COX-1/COX-2 (Homo sapiens) (UniProt P35354+P23219). The data set is described as follows: Selectivity ratio of IC50 for COX-2 in human whole blood to COX-1 in human whole blood. The data set is classed as tissue-based.
Data set [2] concerns the target T1, Prostaglandin G/H synthase 1 (Homo sapiens, UniProt P23219). The data set is described as follows: Inhibition of COX-1 (unknown origin) in platelet rich plasma assessed as inhibition of collagen-induced TXB2 formation incubated for 5 mins prior to collagen challenge measured for 5 mins by aggregometric analysis.
Data set [3] concerns the target T1, Prostaglandin G/H synthase 1. The experiment in a line: Inhibition of COX-1 (unknown origin) in platelet rich plasma assessed as inhibition of arachidonic acid-induced platelet aggregation at 10 uM incubated for 5 mins prior to arachidonic acid challenge measured for 5 mins by aggregometric analysis relative to vehicle-treated control.
The nature of data set [4]: Binding affinity to human alpha1-acid glycoprotein by HPLC analysis relative to control. It counts as ADME. Conditions: pooled result: one value given for 2 cell lines, strains, targets or settings.
For data set [5], the target named is T1, Prostaglandin G/H synthase 1. The experiment in a line: Irreversible inhibition of COX-1 in human THP1 cells assessed as inhibition of arachidonic acid-induced TXB2 formation at 100 uM incubated for 30 mins followed by compound washout measured 30 mins post arachidonic acid challenge by radioimmunoassay. It counts as cell-based. Conditions: THP-1.
Data set [6] has the same target. The data set is described as follows: Inhibition of COX-1 in human washed platelet assessed as inhibition of 10 uM arachidonic acid-induced TXB2 formation at 0.01 to 100 uM incubated for 25 mins prior to arachidonic acid challenge measured after 30 mins by radioimmunoassay.
The target is the same in data set [7]. The experiment in a line: Inhibition of COX-1 (unknown origin) in platelet rich plasma assessed as inhibition of collagen-induced platelet aggregation incubated for 5 mins prior to collagen challenge measured for 5 mins by aggregometric analysis.
Data set [8] deals with Prostaglandin G/H synthase 2 (Homo sapiens) (UniProt P35354). The data set is described as follows: Reversible inhibition of COX-2 in human MDA-MB-231 cells assessed as inhibition of arachidonic acid-induced PGE2 formation at 100 uM incubated for 30 mins followed by compound washout measured 30 mins post arachidonic acid challenge by radioimmunoassay.
The test system of data set [9] is Mus musculus. The data set is described as follows: Antithrombotic activity in C57BL/6 mouse assessed as reduction of 11-dehydro-TXB2 level in urine at 20 mg/kg, po administered 3 days measured for 24 hrs post third dose relative to vehicle-treated control. The data set is classed as functional. Details: scale not given: the % may be the effect or the level left.

Data set [10] has as its target Prostaglandin G/H synthase 2 (Homo sapiens) (UniProt P35354). The experiment in a line: Inhibition of COX-2 in human MDA-MB-231 cells assessed as inhibition of arachidonic acid-induced PGE2 formation at 100 uM incubated for 30 mins prior to arachidonic acid challenge measured after 30 mins by radioimmunoassay relative to vehicle-treated control.
Data set [11] has as its target T1, Prostaglandin G/H synthase 1. The experiment in a line: Inhibition of COX-1 (unknown origin) in platelet rich plasma assessed as inhibition of arachidonic acid-induced TXB2 formation incubated for 5 mins prior to arachidonic acid challenge measured for 5 mins by aggregometric analysis.
For data set [12] the target is unchanged. The data set is described as follows: Inhibition of COX-1 in human THP1 cells assessed as inhibition of arachidonic acid-induced TXB2 formation at 100 uM incubated for 30 mins prior to arachidonic acid challenge measured after 30 mins by radioimmunoassay relative to vehicle-treated control. Conditions: THP-1. The data set is classed as cell-based.
Data set [13] concerns Mus musculus. The data set is described as follows: Antithrombotic activity in C57BL/6 mouse assessed as reduction of 6-keto-PGF1alpha level in urine at 20 mg/kg, po administered 3 days measured for 24 hrs post third dose. Details: dose 20 mg/kg. It counts as functional, organism-based.
Data set [14] deals with T1, Prostaglandin G/H synthase 1. The experiment in a line: Inhibition of COX-1 (unknown origin) in platelet rich plasma assessed as inhibition of collagen-induced platelet aggregation at 10 uM incubated for 5 mins prior to collagen challenge measured for 5 mins by aggregometric analysis relative to vehicle-treated control.
The target is the same in data set [15]. As to conditions: at 0.01 to 100 µM.
Data set [16] shares this target. The experiment in a line: Inhibition of COX-1 (unknown origin) in platelet rich plasma assessed as inhibition of arachidonic acid-induced platelet aggregation up to 3 uM incubated for 5 mins prior to arachidonic acid challenge measured for 5 mins by aggregometric analysis.
The target is the same in data set [17]. The experiment in a line: Inhibition of COX-1 (unknown origin) in platelet rich plasma assessed as inhibition of collagen-induced platelet aggregation up to 3 uM incubated for 5 mins prior to collagen challenge measured for 5 mins by aggregometric analysis.
The target of data set [18] is T2, Prostaglandin G/H synthase 2 (Homo sapiens) (UniProt P35354).
T2 sequence (whole entry): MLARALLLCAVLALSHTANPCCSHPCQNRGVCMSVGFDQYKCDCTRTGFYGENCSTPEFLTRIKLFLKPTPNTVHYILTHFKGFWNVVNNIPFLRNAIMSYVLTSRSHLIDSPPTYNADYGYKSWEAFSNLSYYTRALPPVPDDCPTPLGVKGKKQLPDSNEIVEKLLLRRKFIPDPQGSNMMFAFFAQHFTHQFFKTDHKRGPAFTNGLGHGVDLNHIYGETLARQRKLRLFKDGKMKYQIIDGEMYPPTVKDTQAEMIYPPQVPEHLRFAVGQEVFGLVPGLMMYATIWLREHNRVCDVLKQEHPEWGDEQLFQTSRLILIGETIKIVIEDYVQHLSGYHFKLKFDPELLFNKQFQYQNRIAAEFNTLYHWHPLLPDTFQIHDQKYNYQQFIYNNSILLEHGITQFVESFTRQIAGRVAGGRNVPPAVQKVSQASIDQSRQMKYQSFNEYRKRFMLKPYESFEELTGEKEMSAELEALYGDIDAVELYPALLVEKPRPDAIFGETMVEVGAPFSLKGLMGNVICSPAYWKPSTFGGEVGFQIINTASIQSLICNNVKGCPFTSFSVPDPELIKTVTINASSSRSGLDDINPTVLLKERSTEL
The data set is described as follows: Inhibition of COX-2 in human whole blood assessed as inhibition of LPS-induced plasma PGE2 level at 1000 uM by radioimmunoassay relative to control.

T1 sequence (P23219 whole entry): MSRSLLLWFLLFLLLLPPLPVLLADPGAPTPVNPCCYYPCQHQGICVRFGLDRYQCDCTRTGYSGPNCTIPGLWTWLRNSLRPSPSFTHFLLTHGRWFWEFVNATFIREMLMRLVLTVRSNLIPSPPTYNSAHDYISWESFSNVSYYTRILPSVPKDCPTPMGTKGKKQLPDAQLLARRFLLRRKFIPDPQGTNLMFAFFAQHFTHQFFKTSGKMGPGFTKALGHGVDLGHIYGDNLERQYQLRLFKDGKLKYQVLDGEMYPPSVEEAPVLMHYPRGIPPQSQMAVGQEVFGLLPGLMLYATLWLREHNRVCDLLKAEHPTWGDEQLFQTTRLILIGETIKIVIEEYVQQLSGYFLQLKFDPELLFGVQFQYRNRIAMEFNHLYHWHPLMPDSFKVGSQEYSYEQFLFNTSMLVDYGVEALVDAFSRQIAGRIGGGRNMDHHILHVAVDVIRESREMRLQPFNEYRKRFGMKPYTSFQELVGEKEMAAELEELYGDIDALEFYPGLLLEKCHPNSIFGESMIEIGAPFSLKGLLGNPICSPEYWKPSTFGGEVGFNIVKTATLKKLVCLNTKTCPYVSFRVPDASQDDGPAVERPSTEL

On to `FC(F)(F)c1onc(-c2ccc(Cl)o2)c1-c1ccccc1`, for which the Ratio IC50 in [1] is > 123. The IC50 amounted to 10 µM in data set [2] and 3.7 µM in data set [11]. For the same compound, the inhibition entry in data set [2] is “Dose-dependent effect”; in data set [3] it was 99.2%; in data set [7] it was “Dose-dependent effect”; in data set [10], 70%; in data set [11], “Dose-dependent effect”; in data set [12], > 90%. For the same compound, the inhibition in data set [14] is 72%; in [18], 49%. Besides, the Activity in data set [4] worked out at 94.3%; in the data set with Mus musculus [9], 70%. Also, the inhibition result in data set [5], in [6], in data set [8] and in data set [15] was “Active” throughout. The result in the data set on Mus musculus [13] was inactive. In addition, the inhibition result in data set [16] and in [17] was “inactive” throughout.

The term IC50 denotes the concentration that gives 50% inhibition. One may read the inhibition as the change of the read-out against control, counted positive when it falls.
